Earlier results as cited in patent US4559324A, “Polypeptide-diesters, their production and use” (Takeda Chemical Industries, Ltd., priority 1982, dated 1985).

Test system: Substance P
Conditions: S. Rosell and K. Folkers, TIPS, 211 (1982)

In the case of (D-Pro^2, D-Trp^7, D-Trp^9)-Substance P, the “antagonist activity against Substance P” value is listed as “sufficiently active”.

For (D-Pro^2, D-Phe^7, D-Trp^9)-Substance P, the “antagonist activity against Substance P” value is given as “sufficiently active”.
